Reference: patent US10376476B2, “Panicein compounds, compositions and uses thereof” (CENTRE NATIONAL DE LA RECHERCHE SCIENTIFIQUE, priority 2014, dated 2019)

Biological target: T1, human Patched (hPtc) expressed in yeasts (Homo sapiens, UniProt Q13635)
T1 construct: MAP; expressed in transfected cells; host or cells: Saccharomyces cerevisiae K699
T1 sequence (Q13635 1-1447): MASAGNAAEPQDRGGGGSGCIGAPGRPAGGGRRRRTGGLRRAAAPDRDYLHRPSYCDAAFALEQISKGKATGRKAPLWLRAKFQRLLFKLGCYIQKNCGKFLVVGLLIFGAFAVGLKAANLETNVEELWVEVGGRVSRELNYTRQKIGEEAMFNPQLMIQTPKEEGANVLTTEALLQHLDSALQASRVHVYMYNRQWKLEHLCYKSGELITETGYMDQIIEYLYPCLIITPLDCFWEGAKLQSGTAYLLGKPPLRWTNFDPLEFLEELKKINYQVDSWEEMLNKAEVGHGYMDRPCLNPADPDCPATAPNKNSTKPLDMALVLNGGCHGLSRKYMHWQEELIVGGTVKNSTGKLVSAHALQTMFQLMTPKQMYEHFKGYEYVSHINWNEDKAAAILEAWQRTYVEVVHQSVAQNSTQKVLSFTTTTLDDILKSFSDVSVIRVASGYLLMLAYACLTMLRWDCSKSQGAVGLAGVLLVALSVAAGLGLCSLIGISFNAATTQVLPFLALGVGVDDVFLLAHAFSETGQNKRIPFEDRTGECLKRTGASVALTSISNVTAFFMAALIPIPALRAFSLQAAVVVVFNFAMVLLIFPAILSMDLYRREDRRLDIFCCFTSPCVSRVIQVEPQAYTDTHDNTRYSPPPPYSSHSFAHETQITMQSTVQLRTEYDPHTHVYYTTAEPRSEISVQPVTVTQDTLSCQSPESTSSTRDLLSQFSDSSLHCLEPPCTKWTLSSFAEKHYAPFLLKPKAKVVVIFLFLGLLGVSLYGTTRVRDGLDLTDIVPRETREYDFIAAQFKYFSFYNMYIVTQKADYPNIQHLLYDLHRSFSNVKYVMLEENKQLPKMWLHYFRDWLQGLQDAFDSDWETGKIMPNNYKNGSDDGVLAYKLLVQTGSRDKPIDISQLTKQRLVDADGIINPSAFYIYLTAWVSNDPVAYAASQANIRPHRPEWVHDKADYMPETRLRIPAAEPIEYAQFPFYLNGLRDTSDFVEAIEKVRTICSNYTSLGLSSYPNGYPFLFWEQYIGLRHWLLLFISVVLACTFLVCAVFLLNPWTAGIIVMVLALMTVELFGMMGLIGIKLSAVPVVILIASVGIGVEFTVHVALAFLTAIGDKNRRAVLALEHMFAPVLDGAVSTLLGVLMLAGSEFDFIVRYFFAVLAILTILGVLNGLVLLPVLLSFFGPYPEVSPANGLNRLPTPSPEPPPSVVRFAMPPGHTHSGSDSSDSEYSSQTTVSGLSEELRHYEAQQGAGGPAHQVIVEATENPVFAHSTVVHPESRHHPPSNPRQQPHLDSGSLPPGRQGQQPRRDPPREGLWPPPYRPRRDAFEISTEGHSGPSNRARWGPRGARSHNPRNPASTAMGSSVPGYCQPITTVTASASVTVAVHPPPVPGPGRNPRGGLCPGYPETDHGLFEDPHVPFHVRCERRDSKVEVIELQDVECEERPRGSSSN
Assay: Resistance of hPtc-expressing yeasts to other chemotherapeutic agents (yeast growth, absorbance 600 nm)
Assay type: cell-based
Details: 10 μM paniceins; for inhibition of the resistance of yeasts to vemurafenib: 10 μM vemurafenib; for inhibition of the resistance of yeasts to cisplatine: 50 μM cisplatine; for inhibition of the resistance of yeasts to dacarbazine: 2 mM dacarbazine
Procedure: Paniceins were added at a final concentration of 10 μM to the yeast growth medium containing 2 mM of dacarbazine (A), 50 μM of cisplatine (B), or 10 μM of vemurafenib (C). The growth of hPtc-expressing-yeasts was measured by absorbance at 600 nm.
The expression of human Patched in yeasts confers to these yeasts the ability to grow in presence of other chemotherapeutic agents currently used to treat melanoma such as dacarbazine or cisplatine.

C/C(=C\Cc1cc(O)ccc1O)CCc1c(C)c(O)c(O)c(C=O)c1C [P2, Panicein C]
inhibits the resistance: inhibition of the resistance of yeasts to vemurafenib | inhibition of the resistance of yeasts to cisplatine | inhibition of the resistance of yeasts to dacarbazine

C/C(=C\Cc1cc(O)ccc1O)CCc1c(C)cc(O)c(C=O)c1C [P3, Panicein B3]
inhibits the resistance: inhibition of the resistance of yeasts to vemurafenib | inhibition of the resistance of yeasts to cisplatine | inhibition of the resistance of yeasts to dacarbazine

COc1cc(C)c(CC/C(C)=C/Cc2cc(O)ccc2O)c(C)c1C [P5, Panicein A hydroquinone]
inhibits the resistance: inhibition of the resistance of yeasts to vemurafenib | inhibition of the resistance of yeasts to cisplatine | inhibition of the resistance of yeasts to dacarbazine
